Measurements taken from patent publication US4407810A, “Thiazol-2-yl-oxamic acid derivatives, and therapeutic agents containing these compounds” (BASF Aktiengesellschaft, priority 1980, dated 1983).

Key:
[1] = tested on: passive cutaneous anaphylaxis (PCA); experiment: anti-allergic action, passive cutaneous anaphylaxis (PCA) model in rats; assay type: in vivo; settings: for R.A. (relative activity) / times more active than Comparative Compound V1: PCA in rats; for R.A. (relative activity): relative to V1 (=1); for ED50: Rattus norvegicus, dose which reduces diameter of color patch by 50% vs non-medicated controls, read-out: Inhibition of PCA in rats (oral), ED 50%; for times more active than Comparative Compound V1: after oral administration
Experimental: The anti-allergic action was tested on rats, using the passive cutaneous anaphylaxis (PCA) model.
Narcotized male rats (100-140 g) are sensitized by intradermal injection (into the shaved dorsal skin) of 0.1 ml of an ovalbumin antiserum. After a sensitization period of about 48 hours, the treatment (intraperitoneal or oral administration) is carried out with various dosages (10 animals/dose)of the test substances. 15-20 minutes after treatment, an antigen/Evans blue mixture (10 mg/kg of ovalbumin in 2% strength Evans blue solution) is intravenously injected into the test animals. 30 minutes later, the animals are sacrificed, the dorsal skin is removed and the diameter of the circular blue coloration is measured on the inner surface. The size of the color patches of untreated control animals can be standardized. Anti-allergic substances reduce the diameter of the color patch by an amount dependent on the dose. The ED 50% is quoted as the dose which reduces the diameter of the color patch by 50% relative to that of non-medicated control animals.

[2] = acute toxicity (LD 50), mice, intraperitoneal; settings: mouse, in vivo, ip, NMRI mice, 14 days post-observation
Experimental: (§1) In addition to the anti-allergic action, the acute toxicity was determined for intraperitoneal administration, using groups of 2 NMRI mice, each weighing 20-26 g, and for oral administration, using groups of 2 Sprague-Dawley rats, each weighing 120-150 g. The LD 50 was determined on groups of 10 NMRI mice, each weighing 20-26 g, after intraperitoneal administration. The post-observation period was 14 days.

[3] = acute toxicity, rats, oral; settings: rat, in vivo, Sprague-Dawley rats, 14 days post-observation, read-out: LD 50, rats oral
Experimental: as §1

Row | SMILES | R.A. (relative activity) ([1]; oral) | ED50 ([1]; rats, oral) [mg/kg] | LD50 at 336 h [2] [mg/kg] | LD50 at 336 h [3] [mg/kg] | times more active than Comparative Compound V1 [1] [times] | activity in PCA (in words) ([1]; rats, oral, up to 100 mg/kg)
1 | CCOC(=O)C(=O)Nc1nc(-c2ccccc2)cs1 [Example V1, ethyl N-(4-phenyl-thiazol-2-yl)-oxamate, reference compound] | 1 | 8.67 | ~681 | > 2150 | – | –
2 | CCOCCOC(=O)C(=O)Nc1nc(-c2ccc(OC)cc2)cs1 [Example 14, 2-Ethoxyethyl N-[4-(4-methoxyphenyl)-thiazol-2-yl]-oxamate] | 14.0 | 0.619 | ~1000 | – | – | –
3 | COCCOC(=O)C(=O)Nc1nc(-c2ccccc2)cs1 [Example 7, 2-Methoxyethyl N-(4-phenyl-thiazol-2-yl)-oxamate] | 3.87 | 2.24 | 655 | > 2150 | 3.87 | –
4 | COCCOCCOC(=O)C(=O)Nc1nc(-c2ccccc2)cs1 [Example 11, 2-(ω-Methoxyethyleneoxy)-ethyl N-(4-phenyl-thiazol-2-yl)-oxamate] | 4.01 | 2.16 | 705 | > 2150 | – | –
5 | O=C(O)c1cc(=O)c2c(OCC(O)COc3cccc4oc(C(=O)O)cc(=O)c34)cccc2o1 [Cromolyne, reference compound] | – | 100 | – | > 2150 | – | inactive
6 | CCOCCOC(=O)C(=O)Nc1nc(-c2ccccc2)cs1 [Example 9, 2-Ethoxyethyl N-(4-phenyl-thiazol-2-yl)-oxamate] | 227 | 0.0382 | 956 | > 2150 | 227 | –
